# Measured values: patent US11564913B2, “Compositions and methods for treating cancer” (Children's Hospital Medical Center, priority 2019, dated 2023)
# What was measured:
# [1] = test system: Vav3−/− cells expressing p190-BCR-ABL; test: Cell cycle analysis; assay type: cell-based, murine; conditions: 3 μM, 20 h
# Method: FIG. 14: IODVA1 targets Vav3 in vitro and in vivo. (A) Ba/F3 cells expressing empty vector Mieg3 or p190-BCR-ABL1 were treated with vehicle control or IODVA1 (IO1, 3 μM) for 30 min and incubated with GST-Rac and glutathione beads. Beads were washed and the protein complexes were separated on SDS-PAGE and immunoblotted for pVav3. Input Vav3 was used as control. (B) Binding affinity (Kd) between IODVA1 and Vav3 (green), LARG (brown), and RacGDP (blue). […] Error bars=SD; N=3. (C) Quantification of the average number of colonies made by bone marrow wild-type (black) and Vav3^−/− (lilac) p190-BCR-ABL1 leukemic cells treated with vehicle control or IODVA1 (IO1, 1 and 3 μM) (* p≤0.05; ** p≤0.01; *** p≤0.001; ns, not significant). (D) Representative histogram data of the cell cycle analysis of wild-type (black and grey bars) and Vav3^−/− (dark and light lilac) bone marrow cells expressing p190-BCR-ABL and treated with vehicle control or IODVA1 (IO1, 3 μM) for 20 h. (E) Quantification by densitometry of the pVav3 band from FIG. 14A. […]
# Cell cycle was analyzed by using in vitro incorporation of 5-Bromo-2-deoxyuridine using Brdu Flow kit (BD Pharmingen, Cat #552598). […] DNAse treatment was done according to the instructions and stained with anti BrdU and apoptosis was analyzed by 7-AAD staining through flow cytometry analysis.
# T47D cells = test: Spheroid formation, hanging drop method; assay type: cell-based; conditions: 1 μM
# Method: (§1) FIG. 6: IODVA1 inhibits cell-substratum and cell-cell interactions. (A) IODVA1 impedes spreading of MCF7 and MDA-MB-231 cells on fibronectin. MCF7, T47D, and MDA-MB-231 cells were incubated on fibronectin coated coverslips for 10 min, then further incubated with the indicated concentrations of IODVA1 for 30 min in serum-free media, fixed and observed by bright field microscopy. Areas of single cells were calculated from 6 random fields (no less than 300 cells total per treatment group). Results shown are mean±s.e.m. of a single experiment and are representative of three independent experiments. (B) Effects of IODVA1 treatment on spheroid formation in MCF10A, MCF7, T47D, and MDA-MB-231 cells. Left panel—representative bright field images of hanging drop cultures of MCF10A, MCF7, T47D, and MDA-MB-231 cells grown in the absence (0 μM) and presence of IODVA1 (1 μM) prior to and post mechanical pipetting (trituration). Scale bar=200 μm. Right panel, changes in spheroid/aggregate size due to IODVA1 treatment indicated by the diameter of the spheroids. Results shown are mean±stdev, N=15. (C) IODVA1 treatment reduces proliferation capacity in adhesion-free environment. MCF7, T47D, and MDA-MB-231 cells were grown in complete media in the presence of IODVA1 or vehicle control in ultra-low attachment plates for 5 days. Aggregates and spheroids were dissociated with accutase and trituration, and the number of live cells was determined by trypan blue exclusion. Results shown are combined mean±stdev of two independent experiments. n.s.—not significant, *-p<0.05, **-p<0.01, ***-p<0.001, ****-p<0.0001.
# (§2) In vitro 3D assays, such as spheroid formation, serve as an intermediate between 2D (monolayer) cellular assays and in vivo animal models. Spheroid formation is mediated by matrix development and remodeling and changes in the cytoskeleton and cell-cell contacts and adhesion. To evaluate the effect of IODVA1 on spheroid formation, single cell suspension were plated in complete media containing vehicle control or IODVA1 at 0.1-3 μM range using the hanging drop and ultra-low attachment (ULA) methods (Foty R. 2011). […]
# (§3) Spheroids were formed by the hanging drop method or using ultra-low attachment (ULA) plates (Corning). […] Spheroid formation was monitored daily and imaged using EVOS microscope (Life Technologies). For assessment of attachment-free proliferation, the contents of the well were transferred into an Eppendorf tube, centrifuged at 100×g for 5 min, dissociated into a single cell suspension using trituration and Accutase (Invitrogen) treatment at room temperature and counted using trypan blue exclusion.
# MCF10A cells = test: Spheroid formation, hanging drop method; assay type: cell-based
# Method: as §1, §2, §3
# MCF7 cells = test: Spheroid formation, hanging drop method; assay type: cell-based; conditions: 1 μM
# Method: as §1, §2, §3
compound,measurement,setting,value
"OC1(c2ccccn2)N=C(Nc2nc3ccccc3[nH]2)N=C1c1ccccn1 (centres unmarked) [IODVA1, (Z)-2-((1H-benzo[d]imidazol-2-yl)imino)-4,5-di(pyridin-2-yl)-2,5-dihydro-1H-imidazol-5-ol]",cell cycle,[1],not affected
same,spheroid formation,T47D cells,failed to form packed spheroids
same,effect on spheroids,MCF10A cells,No effect
same,spheroids after mechanical disruption by pipetting,MCF7 cells,complete dissociation
same,spheroid size,MCF7 cells; 96 h,formed smaller spheroids
